Starred links: 1 amine or outer side, 2 acyl side, 3 side chain; linkers in the order of their positions; H or OH if unused. Non-standard residues stand in square brackets, D forms with d. Residues, ends and D or L forms follow the SMILES beside them. Ahppa(3S,4S) = O=C(C[C@H](O)[C@H](Cc1ccccc1)N[*:1])[*:2]; dNMeF = CN[C@H](Cc1ccccc1)C(=O)O; NMeQ = CN[C@@H](CCC(N)=O)C(=O)O; Lac = C[C@H](O)C(=O)O
Molecular target: BACE1 (Homo sapiens, UniProt P56817)
Experiment: Antiproteolytic activity assay against BACE1
Type: biochemical
Details: fold less potent against BACE1 than against cathepsins D and E

Chain of BACE1 (P56817 46-501): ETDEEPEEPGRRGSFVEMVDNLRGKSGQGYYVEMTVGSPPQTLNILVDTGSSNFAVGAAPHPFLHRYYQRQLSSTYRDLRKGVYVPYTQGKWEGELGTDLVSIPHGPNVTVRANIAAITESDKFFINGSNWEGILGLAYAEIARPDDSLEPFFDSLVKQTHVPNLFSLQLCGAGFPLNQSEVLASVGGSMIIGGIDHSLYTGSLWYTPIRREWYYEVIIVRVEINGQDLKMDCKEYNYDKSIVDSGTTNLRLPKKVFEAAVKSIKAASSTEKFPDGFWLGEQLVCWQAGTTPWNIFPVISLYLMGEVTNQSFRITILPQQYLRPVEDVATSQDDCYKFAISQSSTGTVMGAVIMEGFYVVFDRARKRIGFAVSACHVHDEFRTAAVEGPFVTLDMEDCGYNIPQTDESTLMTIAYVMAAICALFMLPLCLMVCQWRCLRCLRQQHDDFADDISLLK

Selectivity ratio IC50 BACE1/CatD–E: 12–30
SMILES: CC[C@H](C)[C@H](NC(=O)C[C@H](O)[C@H](Cc1ccccc1)NC(=O)[C@H](CCC(N)=O)N(C)C(=O)[C@@H](NC(=O)[C@H](C)O)[C@@H](C)CC)C(=O)NCC(=O)N(C)[C@H](Cc1ccccc1)C(=O)N1CCC[C@H]1C(=O)OC [Tasiamide F (1), Tasiamide F] (H-[Lac]I[NMeQ][Ahppa(3S,4S)]IG[dNMeF]P-OMe)

From article PMC4957937 (Bioorganic & medicinal chemistry, 2016)
